Data published in patent US20250042853A1, “BICYCLIC COMPOUND AND APPLICATION THEREOF” (BETTA PHARMACEUTICALS CO., LTD, priority 2021, published 2025).

Tested on: VEGFA
Test: VEGFA ELISA assay (IC50)
Format: cell-based
Conditions: 786-O cells, 24 h, VEGFA in culture supernatant by ELISA
Protocol: 786-O cells in the logarithmic growth phase were inoculated into a 96-well plate at a cell concentration of 65,000 cells per ml of culture liquid, 180 μL per well. The compounds were diluted to the corresponding concentrations, and 20 μL of compound solutions of various concentrations were added to the corresponding cell wells, so that the final concentrations of the compounds were 1.5 nM, 4.6 nM, 13.7 nM, 41.2 nM, 123.5 nM, 370.4 nM, 1111.1 nM, 3333.3 nM, and 10000 nM, respectively. After culturing for 24 h, the cell culture supernatant was collected and the VEGFA concentration was determined using an ELISA kit (purchased from Abeam). Finally, the reaction was terminated and the absorbance value of each well was measured at a wavelength of 450 nm using an ELISA reader. The IC50 values were calculated by GraphPadPrism. CellTiter-Glo reagent was used to measure cell viability.

[1] = Homo sapiens, 786-0, class symbols

SMILES | IC50 [1] | IC50 (Homo sapiens, 786-0) | also measured
N#Cc1cc(-n2cc(C(F)(F)F)c3c2CCC(F)(F)C3O)cc(F)c1F (stereo not shown) [Example 1, 5-(5,5-difluoro-4-hydroxyl-3-(trifluoromethyl)-4,5,6,7-tetrahydro-1H-indol-1-yl)-2,3-difluorobenzonitrile] | ≤ 500 nM |  | 
OC1c2c(C(F)(F)F)cn(-c3ccc(F)c(CF)c3)c2CCC1(F)F (stereo not shown) [Example 2, 5,5-difluoro-1-(4-fluoro-3-(fluoromethyl)phenyl)-3-(trifluoromethyl)-4,5,6,7-tetrahydro-1H-indol-4-ol] |  | 8.3 nM | 
N#Cc1ccc(-n2cc(C(F)(F)F)c3c2CCC(F)(F)[C@H]3O)cc1C(F)F [Example 3, (S)-4-(5,5-difluoro-4-hydroxyl-3-(trifluoromethyl)-4,5,6,7-tetrahydro-1H-indol-1-yl)-2-(difluoromethyl)benzonitrile] |  | 3 nM | 
N#Cc1cc(-n2cc(S(=O)(=O)C(F)F)c3c2CCC(F)(F)[C@H]3O)ccc1F [Example 4, (S)-5-(3-((difluoromethyl)sulfonyl)-5,5-difluoro-4-hydroxyl-4,5,6,7-tetrahydro-1H-indol-1-yl)-2-fluorobenzonitrile] |  | 98 nM | 
CS(=O)(=O)c1cn(-c2ccc(F)c(C(F)F)c2)c2c1[C@H](O)C(F)(F)CC2 [Example 5, (S)-1-(3-(difluoromethyl)-4-fluorophenyl)-5,5-difluoro-3-(methylsulfonyl)-4,5,6,7-tetrahydro-1H-indol-4-ol] |  | 72 nM | 
N#Cc1cc(-n2cc(C(F)(F)C(F)(F)F)c3c2CCC(F)(F)C3O)ccc1F (stereo not shown) [Example 9, 5-(5,5-difluoro-4-hydroxyl-3-(perfluoroethyl)-4,5,6,7-tetrahydro-1H-indol-1-yl)-2-fluorobenzonitrile] |  | 47 nM | 
N#Cc1cc(-n2cc(S(=O)(=O)C(F)(F)F)c3c2CCC(F)(F)[C@H]3O)ccc1F [Example 10, (S)-5-(5,5-difluoro-4-hydroxyl-3-((trifluoromethyl)sulfonyl)-4,5,6,7-tetrahydro-1H-indol-1-yl)-2-fluorobenzonitrile] | ≤ 500 nM |  | 
N#CCS(=O)(=O)c1cn(-c2ccc(F)c(C(F)(F)F)c2)c2c1[C@H](O)C(F)(F)CC2 [Example 13, (S)-2-((5,5-difluoro-1-(4-fluoro-3-(trifluoromethyl)phenyl)-4-hydroxyl-4,5,6,7-tetrahydro-1H-indol-3-yl)sulfonyl)acetonitrile] | 500 to 1500 nM |  | 
N#Cc1cc(-n2cc(C(F)(F)C(N)=O)c3c2CCC(F)(F)C3O)ccc1F (stereo not shown) [Example 15, 2-(1-(3-cyano-4-fluorophenyl)-5,5-difluoro-4-hydroxyl-4,5,6,7-tetrahydro-1H-indol-3-yl)-2,2-difluoroacetamide] | 500 to 1500 nM |  | 
CCS(=O)(=O)c1cn(-c2ccc(F)c(C(F)(F)F)c2)c2c1[C@H](O)C(F)(F)CC2 [Example 16, (S)-3-(ethylsulfonyl)-5,5-difluoro-1-(4-fluoro-3-(trifluoromethyl)phenyl)-4,5,6,7-tetrahydro-1H-indol-4-ol] |  | 537 nM | 
N#Cc1cc(-n2cc(C(F)(F)C#N)c3c2CCC(F)(F)C3O)ccc1F (stereo not shown) [Example 17, 5-(3-(cyanodifluoromethyl)-5,5-difluoro-4-hydroxyl-4,5,6,7-tetrahydro-1H-indol-1-yl)-2-fluorobenzonitrile] | ≤ 500 nM |  | 
CS(=O)(=NC#N)c1cn(-c2ccc(F)c(C#N)c2)c2c1[C@H](O)C(F)(F)CC2 (stereo partly drawn) [Example 18, N—(((S)-1-(3-cyano-4-fluorophenyl)-5,5-difluoro-4-hydroxyl-4,5,6,7-tetrahydro-1H-indol-3-yl)(methyl)(oxo)-16-sulfino)cyanamide] |  |  | IC50 (class symbols): ≤ 500 nM
N#CCS(=O)(=O)c1cn(-c2ccc(F)c(C(F)F)c2)c2c1[C@H](O)C(F)(F)CC2 [Example 19, (S)-2-((1-(3-(difluoromethyl)-4-fluorophenyl)-5,5-difluoro-4-hydroxyl-4,5,6,7-tetrahydro-1H-indol-3-yl)sulfonyl)acetonitrile] | 500 to 1500 nM |  | 
CS(=O)(=O)c1cn(-c2ccc(F)c(C(F)(F)F)c2)c2c1[C@H](O)C(F)(F)CC2 [Example 20, (S)-5,5-difluoro-1-(4-fluoro-3-(trifluoromethyl)phenyl)-3-(methylsulfonyl)-4,5,6,7-tetrahydro-1H-indol-4-ol] |  | 39 nM | 
O=S(=O)(c1cn(-c2ccc(F)c(C(F)(F)F)c2)c2c1[C@H](O)C(F)(F)CC2)C(F)F [Example 21, (S)-3-((difluoromethyl)sulfonyl)-5,5-difluoro-1-(4-fluoro-3-(trifluoromethyl)phenyl)-4,5,6,7-tetrahydro-1H-indol-4-ol] |  | 12 nM | 
N#Cc1cc(-n2c(F)c(S(=O)(=O)C(F)F)c3c2CCC(F)(F)[C@H]3O)ccc1F [Example 22, (S)-5-(3-((difluoromethyl)sulfonyl)-2,5,5-trifluoroether-4-hydroxyl-4,5,6,7-tetrahydro-1H-indol-1-yl)-2-fluorobenzonitrile] |  | 86 nM | 

SMILES | IC50 [1] | IC50 (Homo sapiens, 786-0) | also measured
CS(=O)(=O)c1cn(-c2ccc(F)c(Cl)c2)c2c1C(O)C(F)(F)CC2 (stereo not shown) [Example 24, 1-(3-chloro-4-fluorophenyl)-5,5-difluoro-3-(methylsulfonyl)-4,5,6,7-tetrahydro-1H-indol-4-ol] |  | 72 nM | 
O=S(=O)(c1cn(-c2ccc(F)c(Cl)c2)c2c1C(O)C(F)(F)CC2)C(F)F (stereo not shown) [Example 25, 1-(3-chloro-4-fluorophenyl)-3-((difluoromethyl)sulfonyl)-5,5-difluoro-4,5,6,7-tetrahydro-1H-indol-4-ol] |  | 63 nM | 
O=S(=O)(c1cn(-c2ccc(F)c(C(F)F)c2)c2c1[C@@H](O)C(F)(F)CC2)C(F)F [Example 26, (R)-1-(3-(difluoromethyl)-4-fluorophenyl)-3-((difluoromethyl)sulfonyl)-5,5-difluoro-4,5,6,7-tetrahydro-1H-indol-4-ol] |  | 628 nM | 
CS(=O)(=O)c1cn(-c2ccc(Cl)c(C#N)c2)c2c1[C@H](O)C(F)(F)CC2 [Example 27, (S)-2-chloro-5-(5,5-difluoro-4-hydroxyl-3-(methylsulfonyl)-4,5,6,7-tetrahydro-1H-indol-1-yl)benzonitrile] | ≤ 500 nM |  | 
N#Cc1cc(-n2cc(S(=O)(=O)C(F)F)c3c2CCC(F)(F)[C@H]3O)ccc1Cl [Example 28, (S)-2-chloro-5-(3-((difluoromethyl)sulfonyl)-5,5-difluoro-4-hydroxyl-4,5,6,7-tetrahydro-1H-indol-1-yl)benzonitrile] |  | 118 nM | 
CS(=O)(=O)c1cn(-c2ccc(C#N)c(C(F)F)c2)c2c1[C@H](O)C(F)(F)CC2 [Example 29, (S)-4-(5,5-difluoro-4-hydroxyl-3-(methylsulfonyl)-4,5,6,7-tetrahydro-1H-indol-1-yl)-2-(difluoromethyl)benzonitrile] |  | 174 nM | 
O=S(=O)(CF)c1cn(-c2ccc(F)c(C(F)(F)F)c2)c2c1[C@H](O)C(F)(F)CC2 [Example 30, (S)-5,5-difluoro-1-(4-fluoro-3-(trifluoromethyl)phenyl)-3-((fluoromethyl)sulfonyl)-4,5,6,7-tetrahydro-1H-indol-4-ol] |  | 45 nM | 
N#Cc1ccc(-n2cc(S(=O)(=O)C(F)(F)F)c3c2CCC(F)(F)[C@H]3O)cc1C(F)(F)F [Example 31, (S)-4-(5,5-difluoro-4-hydroxyl-3-((trifluoromethyl)sulfonyl)-4,5,6,7-tetrahydro-1H-indol-1-yl)-2-(trifluoromethyl)benzonitrile] |  | 21 nM | 
N#Cc1ccc(-n2cc(S(=O)(=O)C(F)F)c3c2CCC(F)(F)[C@H]3O)cc1C(F)(F)F [Example 34, (S)-4-(3-((difluoromethyl)sulfonyl)-5,5-difluoro-4-hydroxyl-4,5,6,7-tetrahydro-1H-indol-1-yl)-2-(trifluoromethyl)benzonitrile] | ≤ 500 nM |  | 
N#Cc1ccc(-n2cc(S(=O)(=O)CF)c3c2CCC(F)(F)[C@H]3O)cc1C(F)(F)F [Example 36, (S)-4-(5,5-difluoro-3-((fluoromethyl)sulfonyl)-4-hydroxyl-4,5,6,7-tetrahydro-1H-indol-1-yl)-2-(trifluoromethyl) benzonitrile] |  | 108 nM | 
O=S(=O)(CF)c1cn(-c2ccc(F)c(Cl)c2)c2c1[C@H](O)C(F)(F)CC2 [Example 37, (S)-1-(3-chloro-4-fluorophenyl)-5,5-difluoro-3-((fluoromethyl)sulfonyl)-4,5,6,7-tetrahydro-1H-indol-4-ol] | ≤ 500 nM |  | 
N#Cc1ccc(-n2cc(S(=O)(=O)C(F)F)c3c2CCC(F)(F)[C@H]3O)cc1C#N [Example 39, (S)-4-(3-((difluoromethyl)sulfonyl)-5,5-difluoro-4-hydroxyl-4,5,6,7-tetrahydro-1H-indol-1-yl)phthalonitrile] |  | 140 nM | 
N#Cc1cc(-n2cc(S(=O)(=O)C(F)(F)F)c3c2CCC(F)(F)[C@H]3O)ccc1Cl [Example 40, (S)-2-chloro-5-(5,5-difluoro-4-hydroxyl-3-((trifluoromethyl)sulfonyl)-4,5,6,7-tetrahydro-1H-indol-1-yl)benzonitrile] | ≤ 500 nM |  | 
N#Cc1ccc(-n2cc(C(F)(F)C(F)(F)F)c3c2CCC(F)(F)C3O)cc1C(F)F (stereo not shown) [Example 41, 4-(5,5-difluoro-4-hydroxyl-3-(perfluoroethyl)-4,5,6,7-tetrahydro-1H-indol-1-yl)-2-(difluoromethyl)benzonitrile] | ≤ 500 nM |  | 
N#Cc1ccc(-n2cc(S(=O)(=O)C(F)(F)F)c3c2CCC(F)(F)[C@H]3O)cc1C#N [Example 42, (S)-4-(5,5-difluoro-4-hydroxyl-3-((trifluoromethyl)sulfonyl)-4,5,6,7-tetrahydro-1H-indol-1-yl)phthalonitrile] |  | 74 nM | 
